Target: rPlp (Plp) (Vibrio anguillarum, UniProt Q4ZHV5)
Test: TLC with fluorescence scanning of BODIPY-lysophosphatidylcholine formation
Type: biochemical
Conditions: 20 uM substrate stock mixed 1:1 with enzyme; rPlp routinely 4 ug/ml; no divalent metal needed; labelled compound

rPlp (Plp), sequence (Q4ZHV5 1-416 limits assumed): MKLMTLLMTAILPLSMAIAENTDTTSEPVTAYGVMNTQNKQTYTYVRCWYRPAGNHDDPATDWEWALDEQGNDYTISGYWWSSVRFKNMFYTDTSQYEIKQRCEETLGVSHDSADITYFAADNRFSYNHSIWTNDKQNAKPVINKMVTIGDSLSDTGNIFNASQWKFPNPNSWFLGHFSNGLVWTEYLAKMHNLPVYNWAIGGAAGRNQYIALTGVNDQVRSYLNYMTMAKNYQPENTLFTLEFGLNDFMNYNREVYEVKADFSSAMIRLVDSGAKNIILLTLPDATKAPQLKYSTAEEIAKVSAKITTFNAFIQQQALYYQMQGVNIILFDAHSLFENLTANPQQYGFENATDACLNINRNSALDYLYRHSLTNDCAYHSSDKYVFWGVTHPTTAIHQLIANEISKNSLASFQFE

Structure (SMILES): CCCCCCCCCC(=O)O[C@H](COCCCCCCCCCCCNC(=O)CCc1ccc2n1[B-](F)(F)[N+]1=C(C)C=C(C)C1=C2)COP(=O)([O-])OCC[N+](C)(C)C [BPC, 2-decanoyl-1-(O-(11-(4,4-difluoro-5,7-dimethyl-4-bora-3a,4a-diaza-s-indacene-3-propionyl)amino)undecyl)-sn-glycero-3-phosphocholine]
- TLC with fluorescence scanning of BODIPY-lysophosphatidylcholine formation: rPlp exhibited high activity against phosphatidylcholine, cleaving BPC to yield BLPC and free fatty acid

— publication PMC4222444, “Characterization of Plp, a phosphatidylcholine-specific phospholipase and hemolysin of Vibrio anguillarum” (BMC Microbiology, 2013)
